A short description of data set [1]: Cytotoxicity against human HEK293T cells assessed as reduction in cell viability incubated for 48 hrs by MTT assay. It counts as toxicity, cell-based, HEK-293T. (Tetrazolium assays rely on reduction of a dye to a coloured formazan, in cell work by metabolically active cells.)
In data set [2] the test system is P-gp. Put plainly: Therapeutic index, ratio of IC50 for cytotoxicity against human HEK293T cells to EC50 for reversal of P-gp-mediated multidrug resistance in human NCI-ADR-RES cells. It counts as toxicity, cell-based. Particulars: read-out: Ratio IC50/EC50.
In data set [3] the test system is HCT-8. Put plainly: Antiproliferative activity against human Taxol resistant HCT-8 cells assessed as inhibition of cell growth at 50 uM incubated for 48 hrs by MTT assay. The class given is functional, cell-based.
The subject of data set [4] is MCF7. Kind of data set: Antiproliferative activity against human MCF7 cells assessed as inhibition of cell growth at 50 uM incubated for 48 hrs by MTT assay. It counts as functional, cell-based.
For data set [5], the system named is NCI/ADR-RES. Put plainly: Reversal fold, ratio of doxorubicin IC50 to doxorubicin IC50 in presence of 10 uM test compound for reversal of P-gp-mediated multidrug resistance in human NCI-ADR-RES cells incubated for 48 hrs by MTT assay. It counts as functional.
Data set [6] has as its system A549/TR. Put plainly: Antiproliferative activity against human Taxol resistant A549 cells assessed as inhibition of cell growth at 50 uM incubated for 48 hrs by MTT assay. The class given is functional, cell-based.
For data set [7], the system named is A549. Put plainly: Antiproliferative activity against human A549 cells assessed as inhibition of cell growth at 50 uM incubated for 48 hrs by MTT assay. The class given is functional, cell-based.
For data set [8], the system named is NCI/ADR-RES. Kind of data set: Antiproliferative activity against human multidrug resistant NCI-ADR-RES cells overexpressing P-gp assessed as reduction in cell viability incubated for 48 hrs by MTT assay. It counts as functional, cell-based.
Data set [9] deals with L02. Kind of data set: Cytotoxicity against human L02 cells assessed as inhibition of cell growth at 50 uM incubated for 48 hrs by MTT assay. The class given is toxicity, cell-based. The conditions noted are these: l02, 48 h.
In data set [10] the test system is HCT-8. Put plainly: Antiproliferative activity against human HCT-8 cells assessed as inhibition of cell growth at 50 uM incubated for 48 hrs by MTT assay. It counts as functional, cell-based.
Data set [11] relates to NCI/ADR-RES. Put plainly: Reversal of P-gp-mediated multidrug resistance in human NCI-ADR-RES cells assessed as potentiation of doxorubicin-induced cytotoxicity incubated for 48 hrs by MTT assay. It counts as functional, cell-based.
Data set [12] relates to NCI/ADR-RES. Kind of data set: Antiproliferative activity against human multidrug resistant NCI-ADR-RES cells assessed as inhibition of cell growth at 50 uM incubated for 48 hrs by MTT assay. The class given is functional, cell-based.
Data set [13] has as its system MCF7. Put plainly: Antiproliferative activity against human MCF7 cells assessed as reduction in cell viability incubated for 48 hrs by MTT assay. The conditions noted are these: MCF7, 48 h, read-out: IC50. It counts as functional, cell-based.
Data set [14] relates to HEK-293T. Put plainly: Cytotoxicity against human HEK293T cells assessed as inhibition of cell growth at 50 uM incubated for 48 hrs by MTT assay. The class given is toxicity, cell-based.
The nature of data set [15]: Cytotoxicity against mouse MPC-5 cells assessed as inhibition of cell growth at 50 uM incubated for 48 hrs by MTT assay. It counts as toxicity, cell-based. Particulars: mpc-5, 48 h.
Data set [16] concerns HEK-293T. Kind of data set: Cytotoxicity against human HEK293T cells assessed as cell survival rate at 10 uM incubated for 48 hrs by MTT assay. The class given is toxicity, cell-based.
Data set [17] has as its system NCI/ADR-RES. Put plainly: Induction of apoptosis in human NCI-ADR-RES cells assessed as necrotic cells at 8 uM incubated for 48 hrs by Annexin V-FITC and DAPI staining based flow cytometry (Rvb= 0.55 %). It counts as functional. (In general: A flow cytometer gives signals particle by particle.)
Data set [18] deals with NCI/ADR-RES. Kind of data set: Induction of apoptosis in human NCI-ADR-RES cells assessed as necrotic cells at 8 uM incubated for 24 hrs by Annexin V-FITC and DAPI staining based flow cytometry (Rvb= 0.55 %). The class given is functional.
Data set [19] concerns NCI/ADR-RES. Put plainly: Induction of apoptosis in human NCI-ADR-RES cells assessed as viable cells at 8 uM incubated for 48 hrs by Annexin V-FITC and DAPI staining based flow cytometry (Rvb= 97.9 %). The class given is functional. The conditions noted are these: read-out: Activity.
Data set [20] relates to NCI/ADR-RES. Kind of data set: Induction of apoptosis in human NCI-ADR-RES cells assessed as viable cells at 8 uM incubated for 24 hrs by Annexin V-FITC and DAPI staining based flow cytometry (Rvb= 97.9 %). It counts as functional. Particulars: read-out: Activity.
Data set [21] relates to NCI-ADR-RES. Put plainly: Activation of PI3K/AKT signaling pathway in human NCI-ADR-RES cells assessed as increase in PI3K phosphorylation at 3 uM incubated for 24 to 48 hrs by Western blot analysis. The class given is cell-based. The conditions noted are these: filed as activator, time 24-48 hrs.
Data set [22] deals with NCI/ADR-RES. Kind of data set: Induction of apoptosis in human NCI-ADR-RES cells assessed as early apoptotic cells at 8 uM incubated for 24 hrs by Annexin V-FITC and DAPI staining based flow cytometry (Rvb= 0.89 %). It counts as functional.
For data set [23], the system named is NCI/ADR-RES. Kind of data set: Induction of apoptosis in human NCI-ADR-RES cells assessed as late apoptotic cells at 8 uM incubated for 48 hrs by Annexin V-FITC and DAPI staining based flow cytometry (Rvb= 0.66 %). The class given is functional.
In data set [24] the test system is NCI-ADR-RES. Kind of data set: Activation of PI3K/AKT signaling pathway in human NCI-ADR-RES cells assessed as increase in AKT phosphorylation at 3 uM incubated for 24 to 48 hrs by Western blot analysis. The class given is cell-based. The conditions noted are these: filed as activator, time 24-48 hrs. Background: In western blotting, separated proteins are transferred to a membrane and probed.

Data set [25] deals with NCI/ADR-RES. Kind of data set: Induction of apoptosis in human NCI-ADR-RES cells assessed as early apoptotic cells at 8 uM incubated for 48 hrs by Annexin V-FITC and DAPI staining based flow cytometry (Rvb= 0.89 %). It counts as functional.
Data set [26] concerns NCI/ADR-RES. Put plainly: Induction of apoptosis in human NCI-ADR-RES cells assessed as late apoptotic cells at 8 uM incubated for 24 hrs by Annexin V-FITC and DAPI staining based flow cytometry (Rvb= 0.66 %). The class given is functional.

The values that follow come from ChEMBL document CHEMBL5247598 (Eur J Med Chem, 2022).

Active and inactive are the calls of the source. No cut-off for these calls is given here.

Turning to `COc1cc2c(cc1OC)CN(CCc1ccc(NC(=O)c3cc(OC)c(OC)cc3NC(=O)c3cnc4ccccc4c3)cc1)CC2`, the IC50 at 48 h in data set [1] worked out at 5.22 µM. Also, in [2], the selectivity ratio came to 278. The result in [3], in data set [4], in [6], in [7], in data set [10] and in [12] was Active. The “Ratio IC50” value in [5] worked out at 47.2. Moreover, the results for the IC50 in [8] and in data set [13] were 98.5 µM and 8.11 µM, respectively. For the same compound, the Activity entry in data set [9], in [14], in data set [15] and in data set [16] was “Toxic” throughout. The EC50 in data set [11] came out at 0.0187 µM.

`COc1cccc2c1C(=O)c1c(O)c3c(c(O)c1C2=O)C[C@@](O)(C(=O)CO)C[C@@H]3O[C@H]1C[C@H](N)[C@H](O)[C@H](C)O1` [DOXORUBICIN]: the Activity in data set [17] came out at 1.47%; in [18] it was 0.39%; in [22] it was 0.64%; in [23], 4.03%; in [25], 1.78%; in data set [26], 0.74%. In addition, the values for the viability at 8 µM in data set [19] and in data set [20] were 92.8% and 98.3%, respectively. Further, the result in [21] and in [24] was Active. Further, the IC50 in data set [8] was determined as 58.5 µM.

As a reminder, the IC50 is the concentration that gives 50% inhibition. Broadly, the EC50 is the concentration at which the effect is half-maximal.
